Assay results: US20250313555A1, “2-SUBSTITUTED THIAZOLE AND BENZOTHIAZOLE COMPOSITIONS AND METHODS AS DUX4 INHIBITORS” (ALTAY THERAPEUTICS, INC., priority 2022, published 2025)

Legend:
Assay type in all cases: cell-based
[1] = test system: MB200 cells; test: Cell cytotoxicity 50 assay (CC50), MB200 cells, cell titer glo; conditions: 72 h
In short: (§1)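 Luminescence from CellTiter-Glo after 72 h of compound exposure at 37 °C gave the CC50 for MB200 cells. These were plated at 10 k cells/well in triplicate in supplemented F10 medium and treated with a serial dilution series prepared from a 10 mM stock.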

[2] = test system: HEK; test: Cell cytotoxicity 50 assay (CC50), HEK cells
In short: (§2)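 CC50 was fitted from total luminescence, measured 5 min after adding CellTiter-Glo reagent to HEK cells. The cells had been exposed for 72 h at 37 °C to medium serial dilutions prepared from a 10 mM drug solution.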

[3] = test system: MBD3L2 RNA; test: RNA isolation and qPCR to determine MBD3L2 RNA levels in FSHD cells; conditions: 48 hrs
In short: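 FSHD cells were treated one day after seeding with a DUX4 inhibitor (11 μM or 3.6 μM) for 48 h. Total RNA was DNase-treated and reverse-transcribed with random hexamers and M-MLV. MBD3L2 was quantified by SYBR Green qPCR in triplicate against EEF1A as the reference gene.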

[4] = target: T1, DUX4 (Homo sapiens, UniProt Q9UBX2); test: DUX4 EC50 luciferase reporter protocol in transfected HEK293 cells; conditions: 6 hr
T1 construct: expressed in transfected cells; host or cells: HEK293
T1 sequence (Q9UBX2 whole entry): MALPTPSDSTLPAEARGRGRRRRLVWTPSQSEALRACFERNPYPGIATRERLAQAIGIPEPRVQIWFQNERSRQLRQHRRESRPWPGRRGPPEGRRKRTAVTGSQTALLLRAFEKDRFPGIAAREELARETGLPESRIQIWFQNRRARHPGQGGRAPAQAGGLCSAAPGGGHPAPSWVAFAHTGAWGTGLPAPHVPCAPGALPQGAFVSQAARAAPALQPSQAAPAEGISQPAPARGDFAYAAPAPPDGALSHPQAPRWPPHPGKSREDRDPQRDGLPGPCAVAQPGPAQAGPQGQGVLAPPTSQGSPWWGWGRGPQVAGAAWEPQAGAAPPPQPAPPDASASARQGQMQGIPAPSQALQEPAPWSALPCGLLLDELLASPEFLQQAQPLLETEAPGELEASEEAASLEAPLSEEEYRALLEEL
Description: EC50 Protocol This example provides a representative protocol for a single well of a 96-well plate. It can be scaled up as necessary for treatment of multiple wells. For negative controls, a well containing reporter DNA, Renilla DNA, and turbofect (without expression vector) were used. For positive controls, wells containing cells that were not treated with any inhibitor were used. They were transfected with the complete DNA lipid complex as set forth below. The DNA-lipid complex for one well of the 96-well plate is prepared by adding to a tube 100 ng of the transfection factor (TF) expression vector, 100 ng of TF reporter DNA, 10 ng of Renilla reporter DNA, […] Turbofect transfection reagent, and […] of the medium without any serum or penicillin/streptomycin. The combination was mixed by gentle flicking of the tube, and the mixture was pipetted into a well of a 96-well plate. The plate was then gently tapped to spread the combination evenly on the bottom of the well. The well was incubated for 30 min. HEK293 cells were grown until 80% confluent in DMEM supplemented with 10% fetal bovine serum, 1% penicillin streptomycin, and 1% amphotericin B. The adherent cells growing on a 10 cm plate were trypsinized with 1 mL of prewarmed trypsin. Once the cells detached from the plate, 10 mL of medium was added, and the cells were strained through a […] cell strainer. The cells were counted using a mixture of 10 mL cell suspension with 10 mL of trypan blue. Once the total number of cells are counted, a dilution of 150 k/mL was prepared. After incubation of the transfection complex was complete, […] of HEK293s (23.25 k total cells) were gently dispensed on top of the wells containing the 25 mL transfection complex, producing a total volume of about 180 mL. The mixture was then incubated for 24 h. To treat cells with each inhibitor, the inhibitors were prepared in the same growth medium. In a deep well block, the regular medium with serum was added to well 1 (135 mL) and to wells 2 through 10 (100 mL). To the first well was added 15 mL of 10 nM inhibitor. The final concentration of the drug in well 1 was 1 nM. The wells were pipeted up and down, and 50 mL was transferred from well 1 to well 2 (1/3 dilution). The well was mixed, and the seriation dilution was repeated with the remaining wells. Once the serial dilution was complete, using a multichannel pipet, 20 mL of each inhibitor were transferred to designated wells in a 96-well plate. […] Before the assay, a sufficient amount of 1× passive lysis buffer was prepared. The luciferase substrate buffer (Promega) was thawed completely and then mixed with the lyophilized luciferase substrate. The stop buffer (Promega) was also completely thawed. (1) Cell lysis: After treatment of the cells was complete, all the cell media is removed by flipping the 96-well plate over and tapping it dry on a dry paper towel. Immediately afterwards, the 1× passive lysis buffer (25 μL) was added. The plates were then placed on a rocker for 15 minutes at medium speed. (2)Measuring luciferase signal: The luciferase substrate solution for all wells was placed in a solution basin. The luciferase substrate solution was then added to every well (100 μL/well) using a multichannel pipette. The total luminescence was then read immediately using a plate reader. (3)Measuring Renilla signal: The “complete stop solution” was prepared in a solution basin by mixing the buffer with the 50× stop solution substrate (Promega) to make the final 1× solution. The complete stop solution was added to each well (50 μL/well) using a multichannel pipette. The total luminescence was then read immediately using a plate reader. Using a spreadsheet (e.g., Excel), the luciferase signal was divided by the renilla signal to get a relative luciferase unit.

[5] = Cell cytotoxicity 50 assay (CC50), MB200 cells, cell titer glo; conditions: human
In short: as §1

[6] = Cell cytotoxicity 50 assay (CC50), HEK cells; conditions: human
In short: as §2

Row | SMILES | CC50 [1] | CC50 [2] | qPCR MBD3L2 Inhib at 11 µM [3] | EC50 [4] | CC50 at 72 h [5] | CC50 at 72 h [6]
1 | O=C(CCC1CCC(=O)N1)Nc1ccc(-c2nc3ccccc3s2)cc1 (stereo not shown) [Compound 26] | 1 to 10 µM | > 10 µM | YES |  |  | 
2 | O=C(CCCN1C(=O)CCC1=O)N[C@@H]1CC[C@H](c2nc3ccccc3s2)C1 [Compound 159] | > 10 µM |  |  |  |  | 
3 | CN(C(=O)CCCN1C(=O)CCC1=O)C1CCC(c2nc3ccccc3s2)C1 (stereo not shown) [Compound 147] |  |  |  | > 10 µM | > 10 µM | > 10 µM
4 | O=C(CCN1C(=O)CCC1=O)Nc1ccc(C(=O)c2nc3ccccc3s2)cc1 [Compound 69] |  |  |  | > 10 µM | 1 to 10 µM | > 10 µM
5 | O=C(CCCCN1C(=O)CCC1=O)N[C@H]1CC[C@H](c2nc3ccccc3s2)CC1 [Compound 152] |  |  |  | > 10 µM | > 10 µM | > 10 µM
6 | CC(=O)NCCCNC(=O)c1cc(F)cc(-c2nc3cc(F)ccc3s2)c1 [Compound 180] |  |  |  | > 10 µM | > 10 µM | > 10 µM
7 | CC(=O)NCCCNC(=O)[C@H]1CC[C@H](c2nc3ccccc3s2)C1 [Compound 166] |  |  |  | > 10 µM | > 10 µM | > 10 µM
8 | CC(=O)NCCCC(=O)N[C@@H]1CCC[C@H]1c1nc2ccccc2s1 [Compound 137] |  |  |  | > 10 µM | > 10 µM | > 10 µM
9 | CC(=O)NCCCNC(=O)[C@@H]1CC[C@H](c2nc3ccccc3s2)C1 [Compound 165] |  |  |  | > 10 µM | > 10 µM | > 10 µM
10 | CC(=O)NCCCC(=O)Nc1ncc(-c2nc3ccccc3s2)o1 [Compound 121] |  |  |  | > 10 µM | > 10 µM | > 10 µM
11 | O=C(NCCCN1C(=O)CCC1=O)c1ccc(Cc2nc3ccccc3s2)cc1 [Compound 150] |  |  |  | > 10 µM | > 10 µM | > 10 µM
12 | CC(=O)NC1CCC(C(=O)N[C@H]2CC[C@@H](c3nc4ccccc4s3)CC2)C1 (stereo partly shown) [Compound 133] |  |  |  | > 10 µM | > 10 µM | > 10 µM
